Paper PMC3835060 (2013)
One block for each compound: values may come before it.

Key:
[1] = tested on: HTS (human telomere sequence) d[AG3(TTAG3)3] (DNA, G4) AGGGTTAGGGTTAGGGTTAGGG; experiment: NMR titration (chemical shifts, intermolecular NOEs); conditions: 50 mM NaCl; pH 7, 283 K; binds at both loop ends
[2] = tested on: HTS (human telomere sequence) d[AG3(TTAG3)3] (DNA, G4) AGGGTTAGGGTTAGGGTTAGGG; experiment: luminescence titration; conditions: 200 mM KCl, 10 mM potassium phosphate, 1 mM K2EDTA, pH 7.0, 298 K, error ±20%
[3] = tested on: HTS (human telomere sequence) d[AG3(TTAG3)3] (DNA, G4) AGGGTTAGGGTTAGGGTTAGGG; experiment: NMR titration (chemical shifts, line broadening); conditions: 50 mM NaCl, pH 7, 298 K
[4] = 7 μM complex, one-set-of-sites fit

Compound: [Ru+2].[Ru+2].c1ccc(-c2ccccn2)nc1.c1ccc(-c2ccccn2)nc1.c1ccc(-c2ccccn2)nc1.c1ccc(-c2ccccn2)nc1.c1cnc2c(c1)c1nc3c4cccnc4c4ncccc4c3nc1c1cccnc12
binding [1]: yes

Kb ([2]; apparent, diastereomeric mixture): 1.77 × 10^7 M^–1
Compound: [Ru+2].[Ru+2].c1cnc2c(c1)c1nc3c4cccnc4c4ncccc4c3nc1c1cccnc12.c1cnc2c(c1)ccc1cccnc12.c1cnc2c(c1)ccc1cccnc12.c1cnc2c(c1)ccc1cccnc12.c1cnc2c(c1)ccc1cccnc12

Kb [2, 4]: 2.95 × 10^5 M^–1
binding ([3]; binds mainly at lateral loop end): yes
Compound: [Ru+2].[Ru+2].c1cnc2c(c1)c1nc3c4cccnc4c4ncccc4c3nc1c1cccnc12.c1cnc2c(c1)ccc1cccnc12.c1cnc2c(c1)ccc1cccnc12.c1cnc2c(c1)ccc1cccnc12.c1cnc2c(c1)ccc1cccnc12 [ΔΔ-2]

Kb [2, 4]: 1.16 × 10^7 M^–1
binding ([3]; binds at both ends): yes
Compound: [Ru+2].[Ru+2].c1cnc2c(c1)c1nc3c4cccnc4c4ncccc4c3nc1c1cccnc12.c1cnc2c(c1)ccc1cccnc12.c1cnc2c(c1)ccc1cccnc12.c1cnc2c(c1)ccc1cccnc12.c1cnc2c(c1)ccc1cccnc12 [ΛΛ-2]
